Laboratory results published in article PMC2641037 (Pharmacogenetics and genomics, 2009).
Counter-ions that a name gives are not always drawn. Like-named read-outs stand apart in the source and are kept apart here.

Assays:
Caco-2 cells = details: for montelukast permeability, % of control / Papp±SD of montelukast (% of control): Caco-2; for effect on permeability of montelukast / Papp±SD of montelukast (% of control): 125 µM competitor; for effect on permeability of montelukast: Caco-2, p<0.05; for Papp±SD of montelukast (% of control): control without additional drug
OATP2B1 [1] = details: up; substrate dependent; cited from earlier work
MDR1 = MDR1 (Homo sapiens, UniProt P08183); test: ATP consumption by membrane preparations containing MDR1; assay type: biochemical; details: data not shown
[2] = weak acid; cited from earlier work
[3] = cited from earlier work
[4] = can approach; cited from earlier work
OATP2B1 [5] = biological target: T1, OATP2B1 (Homo sapiens, UniProt O94956); test: Permeability in OATP2B1 expressing MDCKII cell line; details: basolateral → apical, pH 7.5, 1 h 37°C
T1 sequence (O94956 1-709): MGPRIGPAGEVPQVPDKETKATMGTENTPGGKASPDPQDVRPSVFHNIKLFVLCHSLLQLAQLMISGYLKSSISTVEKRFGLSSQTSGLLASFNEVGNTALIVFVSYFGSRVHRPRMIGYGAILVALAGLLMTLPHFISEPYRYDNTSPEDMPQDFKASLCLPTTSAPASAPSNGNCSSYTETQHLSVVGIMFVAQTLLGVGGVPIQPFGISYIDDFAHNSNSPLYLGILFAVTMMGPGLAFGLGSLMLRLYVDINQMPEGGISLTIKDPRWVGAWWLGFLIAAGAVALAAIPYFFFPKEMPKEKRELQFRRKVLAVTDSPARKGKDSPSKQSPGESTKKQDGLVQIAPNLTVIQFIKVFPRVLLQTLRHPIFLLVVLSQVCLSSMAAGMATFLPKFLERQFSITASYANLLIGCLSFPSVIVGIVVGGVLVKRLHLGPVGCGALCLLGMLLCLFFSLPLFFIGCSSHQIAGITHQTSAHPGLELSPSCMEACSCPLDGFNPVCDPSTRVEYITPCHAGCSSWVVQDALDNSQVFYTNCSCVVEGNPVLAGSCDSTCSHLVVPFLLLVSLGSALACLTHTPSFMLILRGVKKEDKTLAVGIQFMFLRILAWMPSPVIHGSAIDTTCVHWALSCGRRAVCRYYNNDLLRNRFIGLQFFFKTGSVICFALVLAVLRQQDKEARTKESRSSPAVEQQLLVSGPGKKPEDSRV

Chain of MDR1 (P08183 whole entry, species assumed): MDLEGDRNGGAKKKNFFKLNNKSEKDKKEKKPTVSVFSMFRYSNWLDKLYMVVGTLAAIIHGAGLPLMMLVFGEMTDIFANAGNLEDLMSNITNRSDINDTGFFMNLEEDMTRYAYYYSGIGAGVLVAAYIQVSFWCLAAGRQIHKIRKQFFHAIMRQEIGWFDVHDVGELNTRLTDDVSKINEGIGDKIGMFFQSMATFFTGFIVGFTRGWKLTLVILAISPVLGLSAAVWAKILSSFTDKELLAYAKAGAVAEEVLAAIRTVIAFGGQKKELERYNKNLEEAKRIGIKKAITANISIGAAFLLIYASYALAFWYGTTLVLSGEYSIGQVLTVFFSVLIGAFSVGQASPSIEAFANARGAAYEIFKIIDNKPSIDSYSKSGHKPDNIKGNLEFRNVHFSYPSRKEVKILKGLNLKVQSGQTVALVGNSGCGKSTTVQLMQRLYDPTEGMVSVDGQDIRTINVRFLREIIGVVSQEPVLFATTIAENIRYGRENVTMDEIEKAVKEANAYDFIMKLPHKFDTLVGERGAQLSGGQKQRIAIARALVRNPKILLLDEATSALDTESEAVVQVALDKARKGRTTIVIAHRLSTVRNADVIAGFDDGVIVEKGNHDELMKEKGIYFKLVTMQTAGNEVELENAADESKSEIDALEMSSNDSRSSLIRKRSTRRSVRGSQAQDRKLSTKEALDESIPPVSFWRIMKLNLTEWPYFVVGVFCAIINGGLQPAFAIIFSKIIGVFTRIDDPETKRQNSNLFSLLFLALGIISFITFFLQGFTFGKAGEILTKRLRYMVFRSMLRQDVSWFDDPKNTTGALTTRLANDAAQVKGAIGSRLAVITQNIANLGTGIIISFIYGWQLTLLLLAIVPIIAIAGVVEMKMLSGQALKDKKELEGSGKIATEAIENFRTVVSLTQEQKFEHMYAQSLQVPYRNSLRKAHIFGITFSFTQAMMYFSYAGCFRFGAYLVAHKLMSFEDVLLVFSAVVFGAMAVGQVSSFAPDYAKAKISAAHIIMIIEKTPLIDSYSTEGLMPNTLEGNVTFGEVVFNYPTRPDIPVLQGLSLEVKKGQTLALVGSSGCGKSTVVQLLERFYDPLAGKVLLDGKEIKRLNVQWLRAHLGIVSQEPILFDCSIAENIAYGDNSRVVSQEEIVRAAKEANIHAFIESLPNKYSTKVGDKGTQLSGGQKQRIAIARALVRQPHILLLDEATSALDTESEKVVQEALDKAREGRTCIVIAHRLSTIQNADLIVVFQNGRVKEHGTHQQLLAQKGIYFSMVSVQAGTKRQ

SMILES | effect on permeability of montelukast (Caco-2 cells) | Papp±SD of montelukast (% of control) (Caco-2 cells) | further results
CC(=O)[C@H]1CC[C@H]2[C@@H]3CCC4=CC(=O)CC[C@]4(C)[C@H]3CC[C@]12C [progesterone] | – | – | montelukast permeability, % of control (Caco-2 cells; 5 µM progesterone in donor reservoir): 150±10 % of control; montelukast permeability, % of control (Caco-2 cells; 15 µM progesterone in donor reservoir): 140±10 % of control; montelukast permeability, % of control (Caco-2 cells; 30 µM progesterone in donor reservoir): 160±10 % of control; allosteric activation of OATP2B1 transport of estrone-3-sulfate (OATP2B1 [1]): up to 300%
O=C1OC(c2ccc(O)c(S(=O)(=O)O)c2)(c2ccc(O)c(S(=O)(=O)O)c2)c2c(Br)c(Br)c(Br)c(Br)c21 [Sulfobromophthalein, sulfobromophthalein] | cis-inhibit permeability | 72±7 % of control | –
CC(C)(O)c1ccccc1CC[C@@H](SCC1(CC(=O)O)CC1)c1cccc(/C=C/c2ccc3ccc(Cl)cc3n2)c1 [montelukast, Montelukast] | – | – | stimulation of ATP consumption by MDR1 membrane preparations (MDR1): does not stimulate ATP consumption; pKa [2]: 5.7; binding to plasma albumin [3]: highly bound; poor response rate [4]: 60 to 70%; permeability in MDCKII-OATP2B1, % of control (parental MDCKII) (OATP2B1 [5]): 140±20 % of control
C[C@H](CCC(=O)O)[C@H]1CC[C@H]2[C@@H]3CC[C@@H]4C[C@H](O)CC[C@]4(C)[C@H]3C[C@H](O)[C@]12C [Deoxycholic acid, deoxycholic acid, sodium salt] | – | 110±10 % of control | –
CN/C(=N/CCSCc1nc[nH]c1C)NC#N [Cimetidine, cimetidine] | enhance permeability | 120±10 % of control | –
C[C@]12CC[C@@H]3c4ccc(OS(=O)(=O)[O-])cc4CC[C@H]3[C@@H]1CCC2=O.[Na+] [Estrone 3-sulfate, estrone 3-sulfate, sodium salt] | – | – | enhancement of permeability in OATP2B1 expressing cell line relative to control (OATP2B1 [5]): 280±40%
C[C@H](CCC(=O)NCCS(=O)(=O)O)[C@H]1CC[C@H]2[C@@H]3[C@H](O)C[C@@H]4C[C@H](O)CC[C@]4(C)[C@H]3C[C@H](O)[C@]12C [Taurocholic acid, taurocholic acid, sodium salt] | cis-inhibit permeability | 84±9 % of control | –
C[C@H](CCC(=O)O)[C@H]1CC[C@H]2[C@@H]3[C@H](O)C[C@@H]4C[C@H](O)CC[C@]4(C)[C@H]3CC[C@]12C [Chenodeoxycholic acid, chenodeoxycholic acid, sodium salt] | – | 90±10 % of control | –

Now from value to molecule, other results behind:

effect on permeability of montelukast (Caco-2 cells) | Papp±SD of montelukast (% of control) (Caco-2 cells) | SMILES | further results
– | 95±8 % of control | NS(=O)(=O)c1cc(C(=O)O)c(NCc2ccco2)cc1Cl [Furosemide, furosemide] | –
– | 100±10 % of control | CCCCNc1cc(C(=O)O)cc(S(N)(=O)=O)c1Oc1ccccc1 [Bumetanide, bumetanide] | –
cis-inhibit permeability | 83±8 % of control | CC[C@H](C)C(=O)O[C@H]1C[C@H](O)C=C2C=C[C@H](C)[C@H](CC[C@@H](O)C[C@@H](O)CC(=O)O)[C@H]21 [Pravastatin, pravastatin] | –
– | 100±10 % of control | C=C(CC)C(=O)c1ccc(OCC(=O)O)c(Cl)c1Cl [Ethacrynic acid, ethacrynic acid] | –
– | 110±10 % of control | O=c1c(-c2ccc(O)cc2)coc2cc(O)cc(O)c12 [Genistein, genistein] | –
enhance permeability | 130±10 % of control | CN(C)C(=O)CCSC(SCCC(=O)O)c1cccc(/C=C/c2ccc3ccc(Cl)cc3n2)c1 (stereo not drawn) [MK571, MK571, sodium salt] | –
– | 100±20 % of control | O=S(=O)(O)c1cc(N=C=S)ccc1C=Cc1ccc(N=C=S)cc1S(=O)(=O)O [DIDS, 4,4'-Diisothiocyanostilbene-2,2'-disulfonic acid] | –
– | 90±10 % of control | CCCN(CCC)S(=O)(=O)c1ccc(C(=O)O)cc1 [Probenecid, probenecid] | –
enhance permeability | 130±20 % of control | Nc1nc2ncc(CNc3ccc(C(=O)N[C@@H](CCC(=O)O)C(=O)O)cc3)nc2c(=O)[nH]1 [Folic acid, folic acid] | –
